The record followed here is patent US11629171B2, “Beta-hairpin peptidomimetics” (POLYPHOR AG, priority 2017, dated 2023).

Format in all cases: cell-based
The subject of data set [1] is human red blood cells (hRBC). As to the kind of experiment: Hemolysis. The note with it: red cells of human, 1 h, 200. A digest of the protocol: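 hRBC washed 4× in PBS; 200 μg/mL peptide + 20% (v/v) hRBC, 1 h, 37° C, 300 rpm. Spin, supernatant ~7.5-fold diluted, OD540 blank corrected. % hemolysis = OD540 peptide / OD540 Triton X-100 × 100.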
Data set [2] has as its system Pseudomonas aeruginosa ATCC 27853. Conditions: ATCC 27853. The procedure, abridged:
(§1)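 Visible-growth endpoint after 18-20 h at 35° C defines the MIC (μg/mL). Setup: CLSI broth microdilution, MH-II cation-adjusted broth with P-80 at 0.002% final, inoculum of approximately 10^6 CFU/mL, two-fold serial peptide dilutions.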

For data set [3], the system named is Escherichia coli ATCC 25922. Conditions: ATCC 25922. A digest of the protocol: as §1
For data set [4], the system named is Klebsiella pneumoniae 968733. Conditions: 968733. A digest of the protocol: as §1
For another data set, the system named is Escherichia coli 926415. The note with it: 926415. A digest of the protocol:
as §1

The subject of data set [5] is Klebsiella pneumoniae SSI #3010. The note with it: SSI #3010. A digest of the protocol: as §1
Data set [6] deals with Acinetobacter baumannii 872842. The note with it: 872842. A digest of the protocol: as §1
The test system of data set [7] is Enterobacter cloacae 848840. Conditions: 848840. A digest of the protocol:
as §1

Data set [8] has as its system Acinetobacter baumannii DSM 30008. The note with it: DSM 30008. A digest of the protocol: as §1

Converted amounts (≈) assume the structure as drawn. Where a SMILES comes first, the peptide text is derived from it. Bridges are numbered along the chain shown (N, C = ends). Roman numbers before positions name the chains, in order. [ ]: non-standard residue; d: D form. The star is where a group is joined. Leu(3R-OH) = CC(C)[C@@H](O)[C@H](N)C(=O)O; d(pGlu) = O=C1CC[C@H](C(=O)O)N1; Thr(ol) = C[C@@H](O)[C@H](N)CO; pGlu = O=C1CC[C@@H](C(=O)O)N1; Tle = CC(C)(C)[C@H](N)C(=O)O; Hiv = CC(C)[C@H](O)C(=O)O; dDab = NCC[C@@H](N)C(=O)O; hSer = N[C@@H](CCO)C(=O)O; Dab = NCC[C@H](N)C(=O)O; Dap = NC[C@H](N)C(=O)O; NHCH2CH2OH = OCCN*

In the case of `CC(C)C[C@@H]1NC(=O)[C@@H](CC(C)C)NC(=O)[C@H](CCN)NC(=O)[C@@H](NC(=O)[C@H](CN)NC(=O)[C@@H](NC(=O)[C@H](CCN)NC(=O)CC[C@@H]2NC(=O)[C@H](CN)NC(=O)[C@H](Cc3ccc(O)cc3)NC(=O)[C@@H](NC(=O)[C@@H](NC(=O)[C@@H]3CCC(=O)N3)C(C)C)CSSC[C@@H](C(=O)N[C@H](CO)[C@@H](C)O)NC(=O)[C@H](C(C)(C)C)NC(=O)[C@H](CO)NC(=O)[C@H](Cc3c[nH]c4ccccc34)NC(=O)[C@H]([C@@H](C)O)NC(=O)[C@@H](CCN)NC2=O)[C@@H](C)O)CCNC(=O)[C@H]([C@@H](C)O)NC(=O)[C@H](CCN)NC(=O)[C@H](CCN)NC1=O` [Ex. 232] (I: [pGlu]VCY[Dap]E[dDab]TWS[Tle]C[Thr(ol)] / II: [Dab]T[Dap][Dab][Dab][dL]L[Dab][Dab]T; disulfide I:3-I:12; amide I:6-II:N; lactam II:4-II:C), the “Hemolysis at 200 μg/mL” value in [1] is given as under 1%. In addition, the minimal inhibitory concentration (MIC) was determined as 0.125 µg/mL (≈ 0.0503 µM) in [2]; 0.0625 µg/mL (≈ 0.0252 µM) in data set [3]; 0.125 µg/mL (≈ 0.0503 µM) in data set [4]; 0.0625 µg/mL (≈ 0.0252 µM) against Escherichia coli 926415; 0.125 µg/mL (≈ 0.0503 µM) in data set [5]; 0.0625 µg/mL (≈ 0.0252 µM) in data set [6]. Further, the figures for the minimum inhibitory concentration (MIC) in data set [7] and in data set [8] were 0.125 µg/mL (≈ 0.0503 µM) and 0.0625 µg/mL (≈ 0.0252 µM), respectively.
Take `CC(C)C[C@@H]1NC(=O)[C@@H](CC(C)C)NC(=O)[C@H](CCN)NC(=O)[C@@H](NC(=O)[C@H](CN)NC(=O)[C@@H](NC(=O)[C@H](CCN)NC(=O)CC[C@@H]2NC(=O)[C@H](CN)NC(=O)[C@H](Cc3ccc(O)cc3)NC(=O)[C@@H](NC(=O)[C@@H](NC(=O)[C@H]3CCC(=O)N3)C(C)C)CSSC[C@@H](C(=O)N[C@H](CO)[C@@H](C)O)NC(=O)[C@H](C(C)(C)C)NC(=O)[C@H](CO)NC(=O)[C@H](Cc3c[nH]c4ccccc34)NC(=O)[C@H]([C@@H](C)O)NC(=O)[C@@H](CCN)NC2=O)[C@@H](C)O)CCNC(=O)[C@H]([C@@H](C)O)NC(=O)[C@H](CCN)NC(=O)[C@H](CCN)NC1=O` [Ex. 233] (I: [d(pGlu)]VCY[Dap]E[dDab]TWS[Tle]C[Thr(ol)] / II: [Dab]T[Dap][Dab][Dab][dL]L[Dab][Dab]T; disulfide I:3-I:12; amide I:6-II:N; lactam II:4-II:C): the “Hemolysis at 200 μg/mL” value in data set [1] is on record as under 1%. The MIC amounted to 0.125 µg/mL (≈ 0.0503 µM) in data set [2]; 0.03125 µg/mL (≈ 0.0126 µM) in [3]; 0.0625 µg/mL (≈ 0.0252 µM) in data set [4]; 0.0625 µg/mL (≈ 0.0252 µM) in the data set on Escherichia coli 926415; 0.0625 µg/mL (≈ 0.0252 µM) in [5]; 0.0625 µg/mL (≈ 0.0252 µM) in data set [6]. The MIC in data set [7] was found to be 0.125 µg/mL (≈ 0.0503 µM); in data set [8] it was 0.0625 µg/mL (≈ 0.0252 µM).
For the molecule `CC(=O)N[C@@H](CCN)C(=O)N[C@@H](CC(C)C)C(=O)N[C@H]1CSSC[C@@H](C(=O)N[C@H](C(N)=O)C(C)C)NC(=O)[C@H](C(C)(C)C)NC(=O)[C@@H]2CSSC[C@H](NC(=O)[C@H](Cc3ccc(O)cc3)NC1=O)C(=O)N[C@@H](CCC(=O)N[C@@H](CCN)C(=O)N[C@H](C(=O)N[C@@H](CN)C(=O)N[C@H]1CCNC(=O)[C@H]([C@@H](C)O)NC(=O)[C@H](CCN)NC(=O)[C@H](CCN)NC(=O)[C@H](CC(C)C)NC(=O)[C@@H](CC(C)C)NC(=O)[C@H](CCN)NC1=O)[C@@H](C)O)C(=O)N[C@H](CCN)C(=O)N[C@@H](CCN)C(=O)N[C@@H](Cc1c[nH]c3ccccc13)C(=O)N2` [Ex. 234] (I: Ac-[Dab]LCYCE[dDab][Dab]WC[Tle]CV-NH2 / II: [Dab]T[Dap][Dab][Dab][dL]L[Dab][Dab]T; disulfide I:3-I:12, I:5-I:10; amide I:6-II:N; lactam II:4-II:C), the “Hemolysis at 200 μg/mL” value in [1] was found to be 9%. Besides, the MIC in data set [2] worked out at 0.5 µg/mL (≈ 0.195 µM); in [3], 0.125 µg/mL (≈ 0.0487 µM); in [4], 1 µg/mL (≈ 0.389 µM); in the data set on Escherichia coli 926415, 0.25 µg/mL (≈ 0.0973 µM); in data set [5], 0.25 µg/mL (≈ 0.0973 µM); in [6], 0.25 µg/mL (≈ 0.0973 µM). Also, the minimum inhibitory concentration (MIC) in [7] was found to be 0.5 µg/mL (≈ 0.195 µM); in data set [8], 0.25 µg/mL (≈ 0.0973 µM).
Consider `CC(=O)N[C@@H](CCN)C(=O)N[C@H](C(=O)N[C@H]1CSSC[C@@H](C(=O)N[C@H](C(N)=O)C(C)C)NC(=O)[C@H](C(C)C)NC(=O)[C@@H]2CSSC[C@H](NC(=O)[C@H](Cc3ccc(O)cc3)NC1=O)C(=O)N[C@@H](CCC(=O)N[C@@H](CCN)C(=O)N[C@H](C(=O)N[C@@H](CN)C(=O)N[C@H]1CCNC(=O)[C@H]([C@@H](C)O)NC(=O)[C@H](CCN)NC(=O)[C@H](CCN)NC(=O)[C@H](CC(C)C)NC(=O)[C@@H](CC(C)C)NC(=O)[C@H](CCN)NC1=O)[C@@H](C)O)C(=O)N[C@H](CCN)C(=O)N[C@@H](CO)C(=O)N[C@@H](Cc1c[nH]c3ccccc13)C(=O)N2)[C@H](O)C(C)C` [Ex. 235] (I: Ac-[Dab][Leu(3R-OH)]CYCE[dDab]SWCVCV-NH2 / II: [Dab]T[Dap][Dab][Dab][dL]L[Dab][Dab]T; disulfide I:3-I:12, I:5-I:10; amide I:6-II:N; lactam II:4-II:C), for which the “Hemolysis at 200 μg/mL” value in data set [1] was determined as 4%. In addition, the MIC in data set [2] is 0.25 µg/mL (≈ 0.0977 µM); in data set [3], 0.0625 µg/mL (≈ 0.0244 µM); in data set [4] it was 0.25 µg/mL (≈ 0.0977 µM); against Escherichia coli 926415 it was 0.125 µg/mL (≈ 0.0489 µM); in data set [5] it was 0.25 µg/mL (≈ 0.0977 µM); in data set [6], 0.0625 µg/mL (≈ 0.0244 µM). Moreover, the minimal inhibitory concentration (MIC) in data set [7] was 0.25 µg/mL (≈ 0.0977 µM); in data set [8] it was 0.0625 µg/mL (≈ 0.0244 µM).
Consider `CC(C)C[C@@H]1NC(=O)[C@@H](CC(C)C)NC(=O)[C@H](CCN)NC(=O)[C@@H](NC(=O)[C@H](CCN)NC(=O)[C@@H](NC(=O)[C@H](CCN)NC(=O)CC[C@@H]2NC(=O)[C@@H](NC(=O)[C@H](CO)NC(=O)[C@@H](NC(=O)[C@@H](O)C(C)C)[C@@H](C)O)CSSC[C@@H](C(=O)N[C@H](C(=O)N[C@@H](C)C(=O)N[C@@H](Cc3ccc(O)cc3)C(=O)NCCO)C(C)(C)C)NC(=O)[C@H](Cc3c[nH]c4ccccc34)NC(=O)[C@H](CCO)NC(=O)[C@@H](CCN)NC2=O)[C@@H](C)O)CCNC(=O)[C@H]([C@@H](C)O)NC(=O)[C@H](CCN)NC(=O)[C@H](CCN)NC1=O` [Ex. 236] (I: H-[Hiv]TSCE[dDab][hSer]WC[Tle]AY-NHCH2CH2OH / II: [Dab]T[Dab][Dab][Dab][dL]L[Dab][Dab]T; disulfide I:4-I:9; amide I:5-II:N; lactam II:4-II:C), for which, in [1], the “Hemolysis at 200 μg/mL” value was under 1%. Also, the MIC came out at 0.25 µg/mL (≈ 0.103 µM) in data set [2]; 0.25 µg/mL (≈ 0.103 µM) in data set [3]; 8 µg/mL (≈ 3.29 µM) in data set [4]; 2 µg/mL (≈ 0.823 µM) in the data set with Escherichia coli 926415; 0.25 µg/mL (≈ 0.103 µM) in data set [5]; 2 µg/mL (≈ 0.823 µM) in [6]. In addition, the MIC in data set [7] was determined as 1 µg/mL (≈ 0.412 µM); in [8] it was 0.25 µg/mL (≈ 0.103 µM).
